Where “and” joins values, the source holds several entries; their conditions need not be identical. Equal values may be shown once. Calls of active or inactive are those of the source. No rule for the calls is given here.
System: rodent lifetime carcinogenesis bioassay, tumor incidence TD50
Assay: chronic cancer bioassays in animals – CPDB, compiled studies (AID 1745844)
[1] = rat, strain Charles River CD (Sprague-Dawley), males, in feed, site: any site (literature study), lesion: several types, types named in the paper, dosed 77 weeks, study length 98 weeks
[2] = rat, strain Charles River CD (Sprague-Dawley), males, in feed, site: liver, lesion: several types, types named in the paper, dosed 77 weeks, study length 98 weeks

## Cc1cc(Cl)ccc1N
mouse, strain B6C3F1, females, in feed, site: all sites, lesion: hemangioma + hemangiosarcoma, dosed 95 weeks, study length 99 weeks
  TD50: 40 mg/kg/day
mouse, strain B6C3F1, females, in feed, site: all sites, lesion: hemangiosarcoma, dosed 95 weeks, study length 99 weeks
  TD50: 42.3 mg/kg/day
mouse, strain B6C3F1, females, in feed, site: any site (literature study), lesion: several types, types named in the paper, dosed 95 weeks, study length 99 weeks
  TD50: 38.8 mg/kg/day
mouse, strain B6C3F1, females, in feed, site: liver, lesion: hepatocellular adenoma + hepatocellular carcinoma + neoplastic nodule, dosed 95 weeks, study length 99 weeks
  TD50: 754 mg/kg/day
mouse, strain B6C3F1, females, in feed, site: lung, lesion: alveolar/bronchiolar adenoma + alveolar/bronchiolar carcinoma, dosed 95 weeks, study length 99 weeks
  TD50: 798 mg/kg/day
mouse, strain B6C3F1, males, in feed, site: all sites, lesion: hemangioma + hemangiosarcoma, dosed 99 weeks, study length 99 weeks
  TD50: 743 mg/kg/day
mouse, strain B6C3F1, males, in feed, site: all sites, lesion: hemangiosarcoma, dosed 99 weeks, study length 99 weeks
  TD50: 911 mg/kg/day
mouse, strain B6C3F1, males, in feed, site: any site (literature study), lesion: several types, types named in the paper, dosed 99 weeks, study length 99 weeks
  TD50: 537 mg/kg/day
mouse, strain B6C3F1, males, in feed, site: liver, lesion: hepatocellular adenoma + hepatocellular carcinoma + neoplastic nodule, dosed 99 weeks, study length 99 weeks
  TD50: 3260 mg/kg/day
mouse, strain CD-1 HaM/ICR, females, in feed, site: all sites, lesion: all vascular tumors, dosed 51 weeks, study length 60 weeks
  TD50: 15.7 mg/kg/day and 18.4 mg/kg/day
mouse, strain CD-1 HaM/ICR, females, in feed, site: any site (literature study), lesion: several types, types named in the paper, dosed 51 weeks, study length 60 weeks
  TD50: 15.6 mg/kg/day
mouse, strain CD-1 HaM/ICR, females, in feed, site: liver, lesion: several types, types named in the paper, dosed 51 weeks, study length 60 weeks
  TD50: 139 mg/kg/day (inactive)
mouse, strain CD-1 HaM/ICR, females, in feed, site: lung, lesion: several types, types named in the paper, dosed 51 weeks, study length 60 weeks
  TD50: 153 mg/kg/day (inactive)
mouse, strain CD-1 HaM/ICR, males, in feed, site: all sites, lesion: all vascular tumors, dosed 55 weeks, study length 60 weeks
  TD50: 15.4 mg/kg/day
mouse, strain CD-1 HaM/ICR, males, in feed, site: any site (literature study), lesion: several types, types named in the paper, dosed 55 weeks, study length 60 weeks
  TD50: 7.72 mg/kg/day
mouse, strain CD-1 HaM/ICR, males, in feed, site: liver, lesion: several types, types named in the paper, dosed 55 weeks, study length 60 weeks
  TD50: 95.7 mg/kg/day (inactive)
mouse, strain CD-1 HaM/ICR, males, in feed, site: lung, lesion: several types, types named in the paper, dosed 55 weeks, study length 60 weeks
  TD50: 8.85 mg/kg/day (inactive)
[1]
  TD50: 24.9 mg/kg/day (inactive)
[2]
  TD50: 123 mg/kg/day (inactive)
rat, strain Fischer 344, females, in feed, site: any site (literature study), lesion: several types, types named in the paper, dosed 107 weeks, study length 107 weeks
  carcinogen call: negative (inactive)
rat, strain Fischer 344, males, in feed, site: liver, lesion: hepatocellular adenoma + hepatocellular carcinoma + neoplastic nodule, dosed 107 weeks, study length 107 weeks
  TD50: 6180 mg/kg/day
rat, strain Fischer 344, males, in feed, site: pituitary gland, lesion: chromophobe adenoma, dosed 107 weeks, study length 107 weeks
  TD50: 576 mg/kg/day (inactive)

## CC#N
mouse, strain B6C3F1, females, inhaled, site: any site (literature study), lesion: several types, types named in the paper, dosed 103 weeks, study length 105 weeks
  carcinogen call: negative (inactive)
mouse, strain B6C3F1, males, inhaled, site: any site (literature study), lesion: several types, types named in the paper, dosed 103 weeks, study length 104 weeks
  carcinogen call: negative (inactive)
mouse, strain B6C3F1, males, inhaled, site: liver, lesion: hepatocellular adenoma + hepatoblastoma + hepatocellular carcinoma, dosed 103 weeks, study length 104 weeks
  TD50: 90.4 mg/kg/day
mouse, strain B6C3F1, males, inhaled, site: lung, lesion: alveolar/bronchiolar adenoma + alveolar/bronchiolar carcinoma, dosed 103 weeks, study length 104 weeks
  TD50: 318 mg/kg/day
rat, strain Fischer 344, females, inhaled, site: mammary gland, lesion: carcinoma + fibroadenoma, dosed 103 weeks, study length 104 weeks
  TD50: 11.5 mg/kg/day (inactive)
rat, strain Fischer 344, males, inhaled, site: adrenal medulla, lesion: pheochromocytoma benign, bilateral + pheochromocytoma, benign, dosed 103 weeks, study length 104 weeks
  TD50: 16.9 mg/kg/day
rat, strain Fischer 344, males, inhaled, site: adrenal medulla, lesion: pheochromocytoma benign, bilateral + pheochromocytoma, malignant + pheochromocytoma, benign, dosed 103 weeks, study length 104 weeks
  TD50: 14.8 mg/kg/day
rat, strain Fischer 344, males, inhaled, site: liver, lesion: hepatocellular adenoma + hepatoblastoma + hepatocellular carcinoma, dosed 103 weeks, study length 104 weeks
  TD50: 168 mg/kg/day
rat, strain Fischer 344, males, inhaled, site: liver, lesion: hepatocellular adenoma + hepatocellular carcinoma, dosed 103 weeks, study length 104 weeks
  TD50: 168 mg/kg/day
rat, strain Fischer 344, males, inhaled, site: liver, lesion: hepatocellular adenoma, dosed 103 weeks, study length 104 weeks
  TD50: 156 mg/kg/day
rat, strain Fischer 344, males, inhaled, site: liver, lesion: hepatocellular carcinoma, dosed 103 weeks, study length 104 weeks
  TD50: 398 mg/kg/day
rat, strain Fischer 344, males, inhaled, site: skin, lesion: basal-cell adenoma + keratoacanthoma + trichoepithelioma, dosed 103 weeks, study length 104 weeks
  TD50: 81.6 mg/kg/day
rat, strain Fischer 344, males, inhaled, site: skin, lesion: keratoacanthoma, dosed 103 weeks, study length 104 weeks
  TD50: 127 mg/kg/day

## C=CCOc1ccccc1OCC(O)CNC(C)C (stereo unspecified)
mouse, strain CF-1, females, in feed, site: liver, lesion: carcinoma, dosed 78 weeks, study length 91 weeks
  TD50: 2400 mg/kg/day (inactive)
mouse, strain CF-1, females, in feed, site: liver, lesion: one or several types, types not named, dosed 78 weeks, study length 78 weeks
  carcinogen call: negative (inactive)
mouse, strain CF-1, females, in feed, site: lung, lesion: adenoma, dosed 78 weeks, study length 91 weeks
  carcinogen call: negative (inactive)
mouse, strain CF-1, females, in feed, site: lung, lesion: carcinoma, dosed 78 weeks, study length 78 weeks
  TD50: 425 mg/kg/day (inactive)
mouse, strain CF-1, females, in feed, site: lung, lesion: neurofibrosarcoma, dosed 78 weeks, study length 91 weeks
  carcinogen call: negative (inactive)
mouse, strain CF-1, males, in feed, site: liver, lesion: carcinoma, dosed 78 weeks, study length 78 weeks
  TD50: 2620 mg/kg/day (inactive)
mouse, strain CF-1, males, in feed, site: liver, lesion: parenchymal adenoma, dosed 78 weeks, study length 91 weeks
  TD50: 2120 mg/kg/day (inactive)
mouse, strain CF-1, males, in feed, site: lung, lesion: adenoma, dosed 78 weeks, study length 78 weeks
  carcinogen call: negative (inactive)
mouse, strain CF-1, males, in feed, site: lung, lesion: adenoma, dosed 78 weeks, study length 91 weeks
  carcinogen call: negative (inactive)
mouse, strain CF-1, males, in feed, site: lung, lesion: carcinoma, dosed 78 weeks, study length 78 weeks
  carcinogen call: negative (inactive)
rat, strain Charles River CD (Sprague-Dawley), females, in feed, site: liver, lesion: one or several types, types not named, dosed 78 weeks, study length 78 weeks
  carcinogen call: negative (inactive)
rat, strain Charles River CD (Sprague-Dawley), males, in feed, site: liver, lesion: hepatocellular adenoma, dosed 78 weeks, study length 78 weeks
  TD50: 1680 mg/kg/day (inactive)

## O=NN(CC(F)(F)F)CC(F)(F)F
rat, strain Fischer 344, females, in drinking water, site: liver, lesion: malignant tumor, dosed 30 weeks, study length 130 weeks
  TD50: 4.98 mg/kg/day (inactive)
rat, strain Sprague-Dawley, males, in drinking water, site: several sites, sites named in the paper, lesion: malignant tumor, dosed 30 weeks, study length 114 weeks
  carcinogen call: negative (inactive)

## O=C1CCCCC1
mouse, strain B6C3F1, females, in drinking water, site: all sites, lesion: malignant lymphoma, dosed 104 weeks, study length 107 weeks
  TD50: 3690 mg/kg/day
rat, strain Fischer 344, females, in drinking water, site: liver, lesion: neoplastic nodule, dosed 104 weeks, study length 107 weeks
  TD50: 6300 mg/kg/day
rat, strain Fischer 344, males, in drinking water, site: adrenal gland, lesion: cortical adenoma, dosed 104 weeks, study length 107 weeks
  TD50: 929 mg/kg/day

## [N]=O
mouse, strain ICR/Jcl, females, inhaled, site: lung, lesion: adenoma, dosed 126 weeks, study length 126 weeks
  carcinogen call: negative (inactive)

## CCN(CC(F)(F)F)N=O
rat, strain Sprague-Dawley, males, by gavage, site: esophagus, lesion: papillary carcinoma, dosed 88 weeks, study length 88 weeks
  TD50: 2.52 mg/kg/day
rat, strain Sprague-Dawley, males, by gavage, site: nasal cavity, lesion: several types, types named in the paper, dosed 88 weeks, study length 88 weeks
  TD50: 7.34 mg/kg/day

## Cc1[nH]cnc1CSCCN=C(NC#N)N(C)N=O
mouse, strain C57BL/6, females, in drinking water, site: liver, lesion: several types, types named in the paper, dosed 102 weeks, study length 104 weeks
  carcinogen call: negative (inactive)
mouse, strain C57BL/6, females, in drinking water, site: lung, lesion: one or several types, types not named, dosed 102 weeks, study length 104 weeks
  carcinogen call: negative (inactive)
rat, strain Fischer 344, females, in drinking water, site: liver, lesion: neoplastic nodule, dosed 106 weeks, study length 131 weeks
  TD50: 43.3 mg/kg/day (inactive)
rat, strain Fischer 344, females, in drinking water, site: pituitary gland, lesion: one or several types, types not named, dosed 106 weeks, study length 131 weeks
  TD50: 3.6 mg/kg/day (inactive)
rat, strain Fischer 344, females, in drinking water, site: thyroid gland, lesion: one or several types, types not named, dosed 106 weeks, study length 131 weeks
  TD50: 18.8 mg/kg/day (inactive)
rat, strain Fischer 344, males, in drinking water, site: liver, lesion: neoplastic nodule, dosed 106 weeks, study length 131 weeks
  carcinogen call: negative (inactive)
rat, strain Sprague-Dawley, females, by gavage, site: any site (literature study), lesion: malignant tumor, dosed 52 weeks, study length 104 weeks
  carcinogen call: negative (inactive)
rat, strain Sprague-Dawley, females, by gavage, site: any site (literature study), lesion: several types, types named in the paper, dosed 52 weeks, study length 104 weeks
  carcinogen call: negative (inactive)
rat, strain Sprague-Dawley, males, by gavage, site: any site (literature study), lesion: malignant tumor, dosed 52 weeks, study length 104 weeks
  TD50: 4820 mg/kg/day (inactive)
rat, strain Sprague-Dawley, males, by gavage, site: any site (literature study), lesion: several types, types named in the paper, dosed 52 weeks, study length 104 weeks
  carcinogen call: negative (inactive)

## Nc1ccc(Cc2ccc(N)c(Cl)c2)cc1Cl
mouse, strain CD-1 HaM/ICR, females, in feed, site: any site (literature study), lesion: several types, types named in the paper, dosed 77 weeks, study length 90 weeks
  TD50: 52.8 mg/kg/day
mouse, strain CD-1 HaM/ICR, females, in feed, site: liver, lesion: hepatoma, dosed 77 weeks, study length 90 weeks
  TD50: 66.6 mg/kg/day
mouse, strain CD-1 HaM/ICR, females, in feed, site: liver, lesion: several types, types named in the paper, dosed 77 weeks, study length 90 weeks
  TD50: 66.6 mg/kg/day
mouse, strain CD-1 HaM/ICR, females, in feed, site: lung, lesion: several types, types named in the paper, dosed 77 weeks, study length 90 weeks
  TD50: 556 mg/kg/day (inactive)
mouse, strain CD-1 HaM/ICR, males, in feed, site: any site (literature study), lesion: several types, types named in the paper, dosed 77 weeks, study length 94 weeks
  TD50: 97.9 mg/kg/day
mouse, strain CD-1 HaM/ICR, males, in feed, site: liver, lesion: several types, types named in the paper, dosed 77 weeks, study length 94 weeks
  TD50: 471 mg/kg/day
mouse, strain CD-1 HaM/ICR, males, in feed, site: lung, lesion: several types, types named in the paper, dosed 77 weeks, study length 94 weeks
  TD50: 342 mg/kg/day (inactive)
[1]
  TD50: 33.4 mg/kg/day
[2]
  TD50: 70.1 mg/kg/day

## CC=CCl
mouse, strain Ha/ICR, females, by gavage, site: forestomach, lesion: one or several types, types not named, dosed 89 weeks, study length 89 weeks
  TD50: 5.05 mg/kg/day
mouse, strain Ha/ICR, males, by gavage, site: forestomach, lesion: one or several types, types not named, dosed 89 weeks, study length 89 weeks
  TD50: 16.7 mg/kg/day

Source: PubChem BioAssay AID1745844 (Carcinogenic Potency Database (CPDB), 2022)
